Marks after values point to notes of the source that are not given here.
Experiments:
S. feltiae IJs = experiment: Dispersal assay; type: in vivo
Experimental: S. feltiae IJs were washed with MILLI-Q water three times and incubated in 6 cm petri dishes for […] with a small amount (4-5 ml) of MILLI-Q water. Nematodes were placed the following day on a 10.7 g/L agar with 1010 g/cm^2 gel strength (PhytoTechnology Lab. Shawnee Mission, Kans.). Nematode behavior was assayed on multiple plates with internal plate replicates to rule out the possibility that behavior was affected by plate composition. Approximately 300 IJs in 10 μl water were placed on an agar medium and the test compounds or extracts (1-2 μl) were placed into the nematode suspension. Upon absorption (˜15 minutes) of the liquid, the freely moving nematodes were video recorded for 5-10 minutes. Dispersal behavior is temperature and season dependent. During winter, the assay is effective at room temperature (22±1° C.). During summer, the assay requires a temperature controlled environment due to the effects on nematode behavior above 23° C.
Activity-guided fractionation was conducted as reported in Srinivasan et al., Nature 454:1115-18 (2008), which is hereby incorporated by reference in its entirety, with modifications. A total of 33 insect host cadavers (G. mellonella larvae) were placed into 70% EtOH and stored at −20° C. until extraction. […]

[1] = tested on: Several of the tested nematode species; experiment: Retention assay; type: in vivo; settings: 1 nM, 1 μM and 1 mM tested
Experimental: (§1) OP50 E. coli was grown on a standard 5 cm agar plate (made with standard Nematode Growth Medium). The bacterial lawn was 16 mm in diameter and was grown overnight at 20° C. before being used in trials. Two 4 mm spots (0.6 μL) were placed on opposite sides of the bacterial lawn (using a transparent template to guide spot placement), and several minutes elapsed for the liquid to settle in before placing nematodes down on the assay. Recording began immediately upon worm placement. 0.6 μL of the control was placed on one side of the lawn, and 0.6 μL of the experimental cue was placed on the other side of the lawn, changing the location of the cue throughout trials between left/right and top/bottom to avoid bias.
(§2) Nematodes were isolated by gender at the L4 stage the day before being used in trials as developed adults. Worms were evenly divided and placed at two points equidistant from the foci of the scoring region. Trials were recorded for 20 minutes, and frames were collected for analysis at 1 frame per second. Results were averaged from at least three different trials. For every nematode species in this study, a different total number of worms (using water in both scoring regions) was tested to determine the minimum number of worms necessary for consistent unbiased results over a 20 minute trial. The total number of worms used in the multiple species assays depended on that species' optimal parameters. 10 worms were used for P. redivivus males and females, 20 worms were used for C. elegans males and O. dolichuridae males, and 14 worms were used for S. glaseri males. The Automated Software was used to compare worm occupancy in each scoring region over time, and the Chemotaxis Index (Bargmann et al., Cell 74:515-27 (1993), which is hereby incorporated by reference in its entirety) was adapted to score preference or avoidance to each ascaroside.
(§3) A video camera attached to the microscope produced a digital video stream, which was then analyzed. The ratio of the time the average worm spent in each region of interest was calculated for every trial. For ease of implementation, all worms in a single experiment were assumed to be roughly the same size. Thus worm pixels were counted instead of whole worms, allowing fractions of a worm in the region of interest to be taken into account. It also eliminated the need for a shape-based worm identification algorithm, and allowed each frame to be analyzed independently. A band-pass filter was applied to each frame to eliminate the effect of uneven lighting and also accentuate the worms against the background. The worm was then identified after thresholding the filtered image. Throughout each experiment, the locations and sizes of the regions of interest were known. Through the filtering described above, it is known which pixels are occupied by worms and which ones are not. Thus, the ratio of worm-pixels to all pixels inside the region of interest can be calculated to produce the worm-occupancy ratio. This calculation was done for every frame, giving a plot output of worm-occupancy ratio vs. time for each region.

C. elegans = experiment: Ascaroside function (Table 12); type: in vivo, Caenorhabditis elegans; settings: listed = has this function
Outline: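 Scoring is qualitative: each ascaroside or ascaroside blend applied to the worms receives a behavioral-effect grade. "Strong" indicates a very strong influence on nematode behavior.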

Panagrellus redivivus = experiment: Ascaroside function (Table 12); type: in vivo; settings: listed = has this function
Experimental: (§4) Various ascarosides and ascaroside blends were administered to various nematodes described below (Table 12). […] A very strong result of affecting nematode behavior is designated in the table as “strong.”

[2] = tested on: Meloidogyne javanica, M. floridensis, M. incognita, M. hapla; experiment: Ascaroside function (Table 12); type: in vivo, Meloidogyne spp.
Experimental: (§5) Ascarosides ascr#10, ascr#16, ascr#18, ascr#20, and ascr#22 were detected in certain species of Meloidogyne plant parasitic nematodes (FIG. 83) and identified using high-resolution mass spectrometry (FIGS. 84-88).
as §4

[3] = tested on: Steinernema riobrave, S. diaprepesi, S carpocapse; experiment: Ascaroside function (Table 12); type: in vivo, Steinernema spp.; settings: listed = has this function
Experimental: as §4

S. feltiae = experiment: Ascaroside function (Table 12); type: in vivo, Steinernema feltiae; settings: listed = has this function
Experimental: as §4

[4] = tested on: Heterorhabditis bacteriophora, H. zealandica, H. floridensis; experiment: Ascaroside function (Table 12); type: in vivo, Heterorhabditis spp.; settings: entries without asterisk
Experimental: as §5, §4

males = experiment: Bioassay of HPLC-purified peak; type: in vivo; settings: retention time 9.7 minutes
Experimental: A Thermo Finnigan LCQ Deca XP Max was used with electrospray ionization in positive ion mode in the 50-1000 AMU range. The Thermo Separation spectra HPLC system consisted of a P4000 quaternary pump, an AS 3000 auto sampler, and a UV 6000 diode array detector. The solvents were water with (a) 0.1% formic acid and (b) 90% acetonitrile-10% water with 10 mM ammonium formate. The column temperature was maintained at 60° C. and a solvent flow of 1.0 ml/min. The reversed phase column (PLRP-S Polymeric reversed phase column, 250×4.6 mmid, Varian Inc.) was eluted with a solvent composition starting with 90:10 (a,b) for 2 minutes, followed by a gradient to 5:95 in 20 minutes and an additional 5 minutes at 5:95. Ultraviolet absorption was monitored at 190 and 400 nm. Solvent flow between the ultraviolet detector and mass spectroscopy electrospray interface split 9:1 with a low-volume micro needle P450 splitter valve (Upchurch Scientific, Oak Harbor, Wash.), making it possible to obtain spectra of eluted compounds and simultaneously collect 90% of the injected material for bioassay. […] This was confirmed to be ascr#1 using NMR analysis.

S. glaseri = experiment: Ascaroside function (Table 12); type: in vivo; settings: listed = has this function
Experimental: as §4

C. elegans males = experiment: Retention assay; type: in vivo
Experimental: as §1, §2, §3

[5] = tested on: P. redivivus males and females; experiment: Retention assay; type: in vivo; settings: only this concentration
Experimental: as §1, §2, §3

S. glaseri males = experiment: Retention assay; type: in vivo; settings: only this concentration
Experimental: as §1, §2, §3

[6] = entries with asterisk (predicted)

## C[C@H](CCC(=O)O)O[C@@H]1O[C@@H](C)[C@H](O)C[C@H]1O [ascr#9]
S. feltiae IJs; ascr#9 40 pmol/μl, ascr#11 1.3 pmol/μL
  dispersal activity in combination with fractions B and C: restored the original dispersal activity
S. feltiae IJs; tested alone, physiologically relevant concentration
  dispersal behavior of S. feltiae IJs: did not have activity by themselves
[1]
  preference for ascaroside-conditioned areas: preferred areas conditioned
C. elegans
  Attract Males: ascr#9
Panagrellus redivivus
  Attract Males: ascr#9
[2]; entries without asterisk
  Dispersal (of dauer larvae, infectious juveniles): ascr#9
  Repel Females/Herm.: ascr#9
[3]
  Dispersal (of dauer larvae, infectious juveniles): ascr#9
S. feltiae
  Dispersal (of dauer larvae, infectious juveniles): ascr#9
[4]
  Dispersal (of dauer larvae, infectious juveniles): ascr#9

## C[C@H](CCCCC(=O)O)O[C@@H]1O[C@@H](C)[C@H](O)C[C@H]1O [ascr#1]
[1]
  preference for ascaroside-conditioned areas: preferred areas conditioned
males
  activity to males in the bioassay: active to males
C. elegans
  Attract Males: ascr#l
  Promote Dauer Formation: ascr#1
Panagrellus redivivus
  Attract Males: ascr#1
S. glaseri
  Attract Males: ascr#1

## CC1O[C@@H](O[C@H](C)CCCCCCC(=O)O)C(O)C[C@H]1O (some centres unmarked) [ascr#10]
C. elegans males
  concentration of conditioned regions preferred: 1 µM
[5]
  concentration of conditioned regions preferred: 1 mM
S. glaseri males
  concentration of conditioned regions preferred: 1 mM
[1]
  preference for ascaroside-conditioned areas: preferred areas conditioned
C. elegans
  Attract Males: ascr#10
Panagrellus redivivus
  Attract Males: ascr#10
S. glaseri
  Attract Males: ascr#10
[2]; alone, in concert, and/or in concert with ascr#9 or other ascarosides
  predicted function in Meloidogyne species: act as dispersants and repellants
[2]; [6]
  Dispersal (of dauer larvae, infectious juveniles): ascr#10*
  Repel Females/Herm.: ascr#10*

Source: US9487551B2, “Small molecule compounds that control mammal-pathogenic nematodes” (California Institute of Technology, priority 2011, dated 2016)
